Laboratory results reported in US20020115727A1, “Synthesis, methods of using, and compositions of hydroxylated cyclobutylalkylamines” (priority 2000, published 2002).
Read-outs that look alike come from different tables or passages of the source.

Assays:
[1] = target: T1, β3-receptor from rat adipose tissue (Rattus norvegicus, UniProt P26255); assay: Binding at the β3-receptor
T1 construct: from tissue; host or cells: rat adipose tissue
Procedure: (§1) Indeed, certain compounds have been tested. The 1-OH metabolites of N-didesmethylsibutramine (1-OH-DDMS) were tested to determine thir ability to functional uptake of serotonin (5-HT), norepinephrine (NE), or dopamine (DA), into synaptosomes prepared from rat whole brain, hypothalamus, or corpora striata, respectively. In addition, binding was determined at the nonselective muscarinic receptor and the β3-receptor from rat cerebral cortex and rat adipose tissue, respectively. The 1-OH-DDMS compounds tested contain two chiral centers (C2, C4): (2R,4R) (2S,4R), (2R,4S), and (2S,4S).
(§2) The 1-OH metabolites of N-desmethylsibutramine (DMS) were also tested to determine their ability to inhibit functional uptake of serotonin (5-HT), norepinephrine (NE), or dopamine (DA), into synaptosomes prepared from rat whole brain, hypothalamus, or corpora striata, respectively. In addition, binding was determined at the nonselective muscarinic receptor and the β3-receptor from rat cerebral cortex and rat adipose tissue, respectively. The 1-OH-DMS compounds tested contained two chiral centers (C2, C4): (2R,4R), (2S,4S), (2R,4S), and (2S,4R).

[2] = target: T2, functional uptake of norepinephrine (NE) into synaptosomes prepared from rat hypothalamus (Rattus norvegicus, UniProt Q63380); assay: Functional uptake of norepinephrine (NE) into synaptosomes; assay type: biochemical; conditions: 10 concentrations in duplicate
T2 construct: into synaptosomes prepared from rat whole brain, hypothalamus, or corpora striata, respectively; from tissue; host or cells: rat hypothalamus synaptosomes
T2 sequence (Q63380 1-617): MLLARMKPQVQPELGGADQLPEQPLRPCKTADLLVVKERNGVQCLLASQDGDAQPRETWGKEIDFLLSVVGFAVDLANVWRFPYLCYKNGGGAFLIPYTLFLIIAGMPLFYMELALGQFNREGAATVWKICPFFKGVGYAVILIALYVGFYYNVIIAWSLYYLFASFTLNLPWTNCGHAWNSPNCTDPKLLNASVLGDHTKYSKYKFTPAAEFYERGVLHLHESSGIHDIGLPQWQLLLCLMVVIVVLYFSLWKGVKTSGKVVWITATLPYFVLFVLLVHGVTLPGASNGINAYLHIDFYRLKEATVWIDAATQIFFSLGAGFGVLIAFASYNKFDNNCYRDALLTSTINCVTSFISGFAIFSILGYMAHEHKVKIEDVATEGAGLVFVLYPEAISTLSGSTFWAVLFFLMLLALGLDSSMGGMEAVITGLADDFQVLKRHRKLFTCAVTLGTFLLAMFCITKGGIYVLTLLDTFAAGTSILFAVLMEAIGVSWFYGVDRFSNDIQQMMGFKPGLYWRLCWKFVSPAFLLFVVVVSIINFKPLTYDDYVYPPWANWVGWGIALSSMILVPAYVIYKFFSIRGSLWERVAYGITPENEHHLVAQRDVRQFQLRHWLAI
Procedure: as §1, with “The” for “Indeed, certain compounds have been tested. The”
as §2

[3] = target: T3, functional uptake of dopamine (DA) into synaptosomes prepared from rat corpora striata (Rattus norvegicus, UniProt P23977); assay: Functional uptake of dopamine (DA) into synaptosomes; assay type: biochemical; conditions: 10 concentrations in duplicate
T3 construct: into synaptosomes prepared from rat whole brain, hypothalamus, or corpora striata, respectively; from tissue; host or cells: rat corpora striata synaptosomes
T3 sequence (P23977 whole entry): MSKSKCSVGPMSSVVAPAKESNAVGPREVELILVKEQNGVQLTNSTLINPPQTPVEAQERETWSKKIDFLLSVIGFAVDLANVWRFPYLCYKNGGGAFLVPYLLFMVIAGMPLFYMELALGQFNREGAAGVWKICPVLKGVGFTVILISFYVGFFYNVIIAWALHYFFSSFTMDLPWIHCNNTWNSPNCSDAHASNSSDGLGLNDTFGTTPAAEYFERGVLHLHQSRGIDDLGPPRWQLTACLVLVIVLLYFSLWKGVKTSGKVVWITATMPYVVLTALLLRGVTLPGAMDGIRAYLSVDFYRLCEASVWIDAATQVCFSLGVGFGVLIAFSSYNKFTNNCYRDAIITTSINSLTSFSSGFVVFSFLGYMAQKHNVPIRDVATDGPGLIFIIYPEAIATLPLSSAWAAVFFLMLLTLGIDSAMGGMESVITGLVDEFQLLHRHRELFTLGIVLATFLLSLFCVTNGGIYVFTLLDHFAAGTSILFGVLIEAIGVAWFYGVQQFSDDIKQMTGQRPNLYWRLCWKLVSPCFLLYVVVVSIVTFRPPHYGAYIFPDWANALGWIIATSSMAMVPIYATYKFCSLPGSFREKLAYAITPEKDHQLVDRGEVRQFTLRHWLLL
Procedure: as §1, with “The” for “Indeed, certain compounds have been tested. The”
as §2

[4] = target: T4, functional uptake of serotonin (5-HT) into synaptosomes prepared from rat whole brain (Rattus norvegicus, UniProt P31652); assay: Functional uptake of serotonin (5-HT) into synaptosomes; assay type: biochemical; conditions: for IC50: rat whole brain synaptosomes, 10 concentrations in duplicate; for inhibition at 10 µM: read-out: inhibition of 5-HT uptake (no IC50 determined)
T4 construct: into synaptosomes prepared from rat whole brain, hypothalamus, or corpora striata, respectively; from tissue; host or cells: rat whole brain synaptosomes
T4 sequence (P31652 whole entry): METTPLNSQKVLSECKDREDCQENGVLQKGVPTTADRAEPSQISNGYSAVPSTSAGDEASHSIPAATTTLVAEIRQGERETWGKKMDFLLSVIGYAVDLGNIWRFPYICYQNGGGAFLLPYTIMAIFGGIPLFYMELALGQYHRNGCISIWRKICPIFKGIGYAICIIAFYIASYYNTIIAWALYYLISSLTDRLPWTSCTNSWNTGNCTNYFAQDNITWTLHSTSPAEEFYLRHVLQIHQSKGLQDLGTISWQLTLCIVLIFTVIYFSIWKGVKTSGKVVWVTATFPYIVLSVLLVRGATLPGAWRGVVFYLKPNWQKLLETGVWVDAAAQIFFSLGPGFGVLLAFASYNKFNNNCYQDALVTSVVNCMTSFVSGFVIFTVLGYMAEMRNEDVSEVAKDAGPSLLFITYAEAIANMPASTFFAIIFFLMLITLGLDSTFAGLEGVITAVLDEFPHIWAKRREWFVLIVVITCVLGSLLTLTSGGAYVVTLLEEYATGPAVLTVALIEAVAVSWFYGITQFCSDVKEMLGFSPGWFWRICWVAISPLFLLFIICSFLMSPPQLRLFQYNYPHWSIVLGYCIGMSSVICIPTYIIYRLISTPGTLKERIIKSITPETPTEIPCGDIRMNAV
Procedure: as §1, with “The” for “Indeed, certain compounds have been tested. The”
as §2

[5] = read-out: IC50 Values (nM) for 1-OH Metabolites of DMS in Functional Uptake Assays: NE
[6] = read-out: IC50 Values (nM) for 1-OH Metabolites of DMS in Functional Uptake Assays: DA
[7] = read-out: IC50 Values (nM) for 1-OH Metabolites of DMS in Functional Uptake Assays: 5-HT
[8] = read-out: IC50 Values (nM) for 1-OH Metabolites of DDMS in Functional Uptake Assays: NE
[9] = read-out: IC50 Values (nM) for 1-OH Metabolites of DDMS in Functional Uptake Assays: DA
[10] = read-out: IC50 Values (nM) for 1-OH Metabolites of DDMS in Functional Uptake Assays: 5-HT

T1 sequence (P26255 whole entry): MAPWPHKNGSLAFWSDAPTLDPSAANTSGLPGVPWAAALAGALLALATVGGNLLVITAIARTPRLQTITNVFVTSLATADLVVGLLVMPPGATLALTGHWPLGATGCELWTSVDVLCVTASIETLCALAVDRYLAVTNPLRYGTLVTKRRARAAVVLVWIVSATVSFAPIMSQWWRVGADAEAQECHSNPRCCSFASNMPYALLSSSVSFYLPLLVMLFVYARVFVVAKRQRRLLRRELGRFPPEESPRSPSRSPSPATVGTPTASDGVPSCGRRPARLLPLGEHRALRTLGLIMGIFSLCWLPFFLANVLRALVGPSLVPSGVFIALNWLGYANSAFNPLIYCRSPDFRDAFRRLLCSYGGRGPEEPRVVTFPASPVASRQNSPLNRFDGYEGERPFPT

CN[C@H](C[C@H](C)CO)C1(c2ccc(Cl)cc2)CCC1 [(2S,4R)-1-OH-DMS, (2S, 4R)-4-Methylamino-4-[1-(4-chlorophenyl)cyclobutyl]-2-methyl-butan-1-ol]
inhibition at 10 µM ([1]; read-out: inhibition at the β3-receptor (1-OH-DMS compounds)): 24%
IC50 [2, 5]: 9.3 nM
IC50 [3, 6]: 37 nM
IC50 [4, 7]: 160 nM

C[C@@H](CO)C[C@@H](N)C1(c2ccc(Cl)cc2)CCC1 [(2R,4R)-1-OH-DDMS, (2R, 4R)-4-Amino-4-[1-(4-chlorophenyl)cyclobutyl]-2-methyl-butan-1-ol]
IC50 [2, 8]: 4.7 nM
IC50 [3, 9]: 27 nM
IC50 [4, 10]: 34 nM

C[C@H](CO)C[C@H](N)C1(c2ccc(Cl)cc2)CCC1 [(2S,4S)-1-OH-DDMS, (2S, 4S)-4-Amino-4-[1-(4-chlorophenyl)cyclobutyl]-2-methyl-butan-1-ol]
inhibition at 10 µM ([1]; read-out: inhibition at the β3-receptor (1-OH-DDMS compounds)): 30%
IC50 [2, 8]: 150 nM
IC50 [3, 9]: 33 nM
IC50 [4, 10]: 1200 nM

C[C@H](CO)C[C@@H](N)C1(c2ccc(Cl)cc2)CCC1 [(2S,4R)-1-OH-DDMS, (2S,4R)-4-Amino-4-[1-(4-chlorophenyl)cyclobutyl]-2-methyl-butan-1-ol]
IC50 [2, 8]: 11 nM
IC50 [3, 9]: 37 nM
IC50 [4, 10]: 65 nM

C[C@@H](CO)C[C@H](N)C1(c2ccc(Cl)cc2)CCC1 [(2R,4S)-1-OH-DDMS, (2R, 4S)-4-Amino-4-[1-(4-chlorophenyl)cyclobutyl]-2-methyl-butan-1-ol]
IC50 [2, 8]: 71 nM
IC50 [3, 9]: 110 nM
IC50 [4, 10]: 2000 nM

CN[C@@H](C[C@@H](C)CO)C1(c2ccc(Cl)cc2)CCC1 [(2R,4S)-1-OH-DMS, (2R, 4S)-4-Methylamino-4-[1-(4-chlorophenyl)cyclobutyl]-2-methyl-butan-1-ol]
IC50 [2, 5]: 74 nM
IC50 [3, 6]: 2500 nM
inhibition at 10 µM [4]: < 50%

CN[C@@H](C[C@H](C)CO)C1(c2ccc(Cl)cc2)CCC1 [(2S,4S)-1-OH-DMS, (2S, 4S)-4-Methylamino-4-[1-(4-chlorophenyl)cyclobutyl]-2-methyl-butan-1-ol]
IC50 [2, 5]: 250 nM
IC50 [3, 6]: 430 nM
inhibition at 10 µM [4]: < 50%

CN[C@H](C[C@@H](C)CO)C1(c2ccc(Cl)cc2)CCC1 [(2R,4R)-1-OH-DMS]
IC50 [2, 5]: 2.2 nM
IC50 [3, 6]: 19 nM
IC50 [4, 7]: 12 nM
